# Reference: PubChem BioAssay AID256 (DTP/NCI, 2004)
# “And” between values parts separate entries of the source, which are not always exact repeats. Equal entries are not always repeated. Toxic doses and inconclusive results are not listed.
# Test system: CD2F1 mice, L1210 leukemia ip, survival T/C
# Assay: NCI In Vivo Anticancer Drug Screen. Data for tumor model L1210 Leukemia (intraperitoneal) in CD2F1 (CDF1) mice
# Conditions: higher = longer survival
# Procedure, shortened: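 Vehicle-treated tumor-bearing mice served as controls (C) for compound-treated mice (T). Reported figure is T divided by C.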
# [1] = endpoint: mean survival time, dose: 100.0 mg/kg/injection, schedule: Q01DX009 (ip), vehicle: saline with Tween-80
# [2] = endpoint: mean survival time, dose: 100.0 mg/kg/injection, schedule: Q04DX003 (ip), vehicle: saline
# [3] = endpoint: mean survival time, dose: 200.0 mg/kg/injection, schedule: Q01DX009 (ip), vehicle: saline with Tween-80
# [4] = endpoint: mean survival time, dose: 200.0 mg/kg/injection, schedule: Q04DX003 (ip), vehicle: saline
# [5] = endpoint: mean survival time, dose: 400.0 mg/kg/injection, schedule: Q01DX009 (ip), vehicle: saline with Tween-80
# [6] = endpoint: mean survival time, dose: 400.0 mg/kg/injection, schedule: Q04DX003 (ip), vehicle: saline
# [7] = endpoint: mean survival time, dose: 25.0 mg/kg/injection, schedule: Q04DX003 (ip), vehicle: saline with Tween-80
# [8] = endpoint: mean survival time, dose: 50.0 mg/kg/injection, schedule: Q04DX003 (ip), vehicle: saline with Tween-80
# [9] = endpoint: mean survival time, dose: 100.0 mg/kg/injection, schedule: Q04DX003 (ip), vehicle: saline with Tween-80
# [10] = endpoint: mean survival time, dose: 50.0 mg/kg/injection, schedule: Q01DX009 (ip), vehicle: saline with Tween-80
# [11] = endpoint: mean survival time, dose: 25.0 mg/kg/injection, schedule: Q01DX009 (ip), vehicle: saline with Tween-80
# [12] = endpoint: mean survival time, dose: 200.0 mg/kg/injection, schedule: Q04DX003 (ip), vehicle: saline with Tween-80
# [13] = endpoint: mean survival time, dose: 400.0 mg/kg/injection, schedule: Q04DX003 (ip), vehicle: saline with Tween-80
# [14] = endpoint: mean survival time, dose: 100.0 mg/kg/injection, schedule: Q01DX009 (ip), vehicle: saline
# [15] = endpoint: mean survival time, dose: 200.0 mg/kg/injection, schedule: Q01DX009 (ip), vehicle: saline
# [16] = endpoint: mean survival time, dose: 400.0 mg/kg/injection, schedule: Q01DX009 (ip), vehicle: saline
# [17] = endpoint: mean survival time, dose: 100.0 mg/kg/injection, schedule: Q04DX003 (ip), vehicle: acetone
# [18] = endpoint: mean survival time, dose: 200.0 mg/kg/injection, schedule: Q04DX003 (ip), vehicle: acetone
# [19] = endpoint: mean survival time, dose: 400.0 mg/kg/injection, schedule: Q04DX003 (ip), vehicle: acetone
smiles,measurement,setting,value
C=C(C#N)C(=O)OCC(CC)CC.C=C(C#N)C(=O)OCC(CC)CC.CS(C)=O.CS(C)=O.Nc1c(N=Nc2ccc(-c3ccc(N=Nc4cc(S(=O)(=O)[O-])c5ccccc5c4N)cc3)cc2)cc(S(=O)(=O)[O-])c2ccccc12.[Pt+2],T/C,"endpoint: median survival time, dose: 3.12 mg/kg/injection, schedule: Q04DX003 (ip), vehicle: saline with Tween-80",95 % of control
same,T/C,"endpoint: median survival time, dose: 6.25 mg/kg/injection, schedule: Q04DX003 (ip), vehicle: saline with Tween-80",106 % of control
same,T/C,"endpoint: median survival time, dose: 12.5 mg/kg/injection, schedule: Q04DX003 (ip), vehicle: saline with Tween-80",108 % of control
same,T/C,"endpoint: median survival time, dose: 25.0 mg/kg/injection, schedule: Q04DX003 (ip), vehicle: saline with Tween-80",100 % of control
same,T/C,"endpoint: median survival time, dose: 50.0 mg/kg/injection, schedule: Q04DX003 (ip), vehicle: saline with Tween-80",97 % of control
same,T/C,"endpoint: median survival time, dose: 100.0 mg/kg/injection, schedule: Q04DX003 (ip), vehicle: saline with Tween-80",98 % of control
same,T/C,"endpoint: median survival time, dose: 200.0 mg/kg/injection, schedule: Q04DX003 (ip), vehicle: saline with Tween-80",90 % of control
COC(=O)CCC1CCC(=O)O1 (stereo not given),T/C,[1],98 % of control
same,T/C,[2],102 % of control
same,T/C,[3],105 % of control
same,T/C,[4],100 % of control
same,T/C,[5],94 % of control
same,T/C,[6],100 % of control
Nc1ccc2c(c1)CN1C(=O)c3ccccc3C1=N2,T/C,"endpoint: median survival time, dose: 12.5 mg/kg/injection, schedule: Q01DX009 (ip), vehicle: saline with Tween-80",111 % of control
same,T/C,"endpoint: median survival time, dose: 25.0 mg/kg/injection, schedule: Q01DX009 (ip), vehicle: saline with Tween-80",115 % of control
same,T/C,"endpoint: median survival time, dose: 50.0 mg/kg/injection, schedule: Q01DX009 (ip), vehicle: saline with Tween-80",116 % of control
same,T/C,"endpoint: median survival time, dose: 100.0 mg/kg/injection, schedule: Q01DX009 (ip), vehicle: saline with Tween-80",108 % of control
NC(=O)NNc1ccc([N+](=O)[O-])cc1[N+](=O)[O-],T/C,[7],93 % of control
same,T/C,[8],89 % of control
same,T/C,[9],97 % of control
CCN(CC)c1cc(C(=O)O)cc(N(CC)CC)n1,T/C,"endpoint: median survival time, dose: 6.25 mg/kg/injection, schedule: Q01DX009 (ip), vehicle: other",104 % of control
same,T/C,"endpoint: median survival time, dose: 12.5 mg/kg/injection, schedule: Q01DX009 (ip), vehicle: other",107 % of control
same,T/C,"endpoint: median survival time, dose: 50.0 mg/kg/injection, schedule: Q01DX005 (ip), vehicle: acid diluted with saline",103 % of control
same,T/C,"endpoint: median survival time, dose: 50.0 mg/kg/injection, schedule: Q01DX009 (ip), vehicle: other",108 % of control
same,T/C,"endpoint: median survival time, dose: 100.0 mg/kg/injection, schedule: Q01DX005 (ip), vehicle: acid diluted with saline",94 % of control
same,T/C,"endpoint: median survival time, dose: 100.0 mg/kg/injection, schedule: Q01DX009 (ip), vehicle: other",121 % of control
C=C(Br)CNC(=O)OCCCC,T/C,[10],88 % of control
C(CC1CO1)CC1OC1CC1CO1 (stereo not given),T/C,"endpoint: mean survival time, dose: 39.0 mg/kg/injection, schedule: Q01DX009 (ip), vehicle: saline",109 % of control
same,T/C,"endpoint: mean survival time, dose: 75.0 mg/kg/injection, schedule: Q01DX001 (ip), vehicle: saline",109 % of control
same,T/C,"endpoint: mean survival time, dose: 133.0 mg/kg/injection, schedule: Q01DX009 (ip), vehicle: saline",156 % of control
same,T/C,"endpoint: mean survival time, dose: 150.0 mg/kg/injection, schedule: Q01DX001 (ip), vehicle: saline",119 % of control
CC(=O)CC(C)=O,T/C,[2],103 % of control
same,T/C,[4],94 % of control
same,T/C,[6],100 % of control
Cc1nc2n3c(nc(C)c13)=CCC2,T/C,[11],96 % of control
same,T/C,[10],98 % of control
same,T/C,[1],93 % of control
same,T/C,[9],97 % of control
COc1cc(C(=O)CC2CCCCN2)ccc1O (stereo not given),T/C,"endpoint: mean survival time, dose: 50.0 mg/kg/injection, schedule: Q01DX Z (ip), vehicle: saline",98 % of control
same,T/C,"endpoint: mean survival time, dose: 100.0 mg/kg/injection, schedule: Q01DX Z (ip), vehicle: saline",96 % of control
same,T/C,"endpoint: mean survival time, dose: 200.0 mg/kg/injection, schedule: Q01DX Z (ip), vehicle: saline",100 % of control
OC(CS)C(c1ccccc1)c1ccccc1 (stereo not given),T/C,[9],98 % of control
same,T/C,[12],93 % of control
same,T/C,[13],96 % of control
C[Si](OP(=O)(O[Si](C)(c1ccccc1)c1ccccc1)N(CCCl)CCCl)(c1ccccc1)c1ccccc1,T/C,"endpoint: mean survival time, dose: 15.63 mg/kg/injection, schedule: Q01DX001 (ip), vehicle: distilled water + Tween-80",104 % of control
same,T/C,"endpoint: mean survival time, dose: 31.25 mg/kg/injection, schedule: Q01DX001 (ip), vehicle: distilled water + Tween-80",97 % of control
same,T/C,"endpoint: mean survival time, dose: 62.5 mg/kg/injection, schedule: Q01DX001 (ip), vehicle: distilled water + Tween-80",101 % of control
same,T/C,"endpoint: mean survival time, dose: 125.0 mg/kg/injection, schedule: Q01DX001 (ip), vehicle: distilled water + Tween-80",95 % of control
same,T/C,"endpoint: mean survival time, dose: 250.0 mg/kg/injection, schedule: Q01DX001 (ip), vehicle: distilled water + Tween-80",97 % of control
same,T/C,"endpoint: mean survival time, dose: 500.0 mg/kg/injection, schedule: Q01DX001 (ip), vehicle: distilled water + Tween-80",115 % of control
OC1CCCC/C1=C/C=C/c1ccccc1 (stereo not given),T/C,[1],92 % of control and 91 % of control
same,T/C,[3],94 % of control and 92 % of control
same,T/C,[5],93 % of control
CN=C(NC)S(=O)O,T/C,[14],97 % of control
same,T/C,[15],97 % of control
same,T/C,[16],101 % of control
COc1ccc2c(Br)cccc2c1,T/C,[17],102 % of control
same,T/C,[18],94 % of control
same,T/C,[19],92 % of control
N#CC(C#N)=C1CCN2CCCc3cccc1c32,T/C,"endpoint: mean survival time, dose: 100.0 mg/kg/injection, schedule: Q01DX001 (ip), vehicle: saline with Tween-80",100 % of control
same,T/C,"endpoint: mean survival time, dose: 200.0 mg/kg/injection, schedule: Q01DX001 (ip), vehicle: saline with Tween-80",95 % of control
same,T/C,"endpoint: mean survival time, dose: 400.0 mg/kg/injection, schedule: Q01DX001 (ip), vehicle: saline with Tween-80",111 % of control
COC(=O)CSC(=S)N(C)C,T/C,[9],98 % of control
same,T/C,[12],100 % of control
same,T/C,[13],90 % of control
O=C(NO)c1cccnc1,T/C,"endpoint: mean survival time, dose: 270.0 mg/kg/injection, schedule: Q01DX009 (ip), vehicle: other",121 % of control
same,T/C,"endpoint: mean survival time, dose: 400.0 mg/kg/injection, schedule: Q01DX001 (ip), vehicle: other",98 % of control
same,T/C,"endpoint: mean survival time, dose: 600.0 mg/kg/injection, schedule: Q01DX001 (ip), vehicle: other",101 % of control
same,T/C,"endpoint: mean survival time, dose: 800.0 mg/kg/injection, schedule: Q01DX001 (ip), vehicle: other",101 % of control
same,T/C,"endpoint: mean survival time, dose: 800.0 mg/kg/injection, schedule: Q01DX009 (ip), vehicle: other",164 % of control
ClCCOc1ccccc1-c1ccccc1,T/C,"endpoint: mean survival time, dose: 100.0 mg/kg/injection, schedule: Q04DX003 (ip), vehicle: other",98 % of control
same,T/C,"endpoint: mean survival time, dose: 200.0 mg/kg/injection, schedule: Q04DX003 (ip), vehicle: other",96 % of control
same,T/C,"endpoint: mean survival time, dose: 400.0 mg/kg/injection, schedule: Q04DX003 (ip), vehicle: other",100 % of control
O=[N+]([O-])c1ccc2c([N+](=O)[O-])ccc3c2c1CC3,T/C,[9],100 % of control
same,T/C,[12],109 % of control
same,T/C,[13],97 % of control
O=C(O)c1cccc(-c2ccccc2)c1,T/C,[14],104 % of control
same,T/C,[15],154 % of control
same,T/C,[16],93 % of control
c1cc(C[N+]23CN4CN(CN(C4)C2)C3)cs1,T/C,[9],91 % of control
CC(C(=O)N1c2ccccc2Sc2ccccc21)[N+](C)(C)C (stereo not given),T/C,"endpoint: mean survival time, dose: 12.5 mg/kg/injection, schedule: Q04DX003 (ip), vehicle: saline",97 % of control
same,T/C,"endpoint: mean survival time, dose: 25.0 mg/kg/injection, schedule: Q04DX003 (ip), vehicle: saline",101 % of control
same,T/C,"endpoint: mean survival time, dose: 50.0 mg/kg/injection, schedule: Q04DX003 (ip), vehicle: saline",101 % of control
COC(=O)C1(C)CCCC2(C)C1CCC13OCC(CC21)C(O)(C(C)C)C3O (stereo not given),T/C,[9],95 % of control
same,T/C,[12],97 % of control
same,T/C,[13],103 % of control
Cc1ccc(C)c(C(=O)CCCCl)c1,T/C,[11],105 % of control
same,T/C,[7],93 % of control
same,T/C,[10],97 % of control
same,T/C,[8],96 % of control
same,T/C,[1],100 % of control
same,T/C,[9],96 % of control
Cc1ccc(S(=O)(=O)OC2CC3CCC2C3)cc1 (stereo not given),T/C,[17],105 % of control
same,T/C,[18],101 % of control
same,T/C,[19],100 % of control
